Test results from ChEMBL document CHEMBL1130599, “Novel protein kinase C inhibitors: alpha-terthiophene derivatives” (Bioorg Med Chem Lett, 1998).
pIC50: −log10 of the molar value.

Assay: Inhibition of protein kinase C(1:1mixture of PKC alpha & beta) expressed in Sf9 insect cells
Type: cell-based

| SMILES | pIC50 |
| --- | --- |
| OCc1ccc(-c2ccc(-c3cccs3)s2)s1 | 5.40 |
| O=Cc1cccs1 [2-THIOPHENENECARBOXALDEHYDE] | < 2.40 |
| O=Cc1ccc(-c2cccs2)s1 | 3.15 |
| O=Cc1ccc(-c2ccc(-c3ccc(C=O)s3)s2)s1 | 6.52 |
| CN1CCN(CCCN2c3ccccc3Sc3ccc(C(F)(F)F)cc32)CC1 [TRIFLUOPERAZINE] | 3.30 |
| O=Cc1ccc(-c2ccc(-c3ccc(CO)s3)s2)s1 | 6.15 |
| N#Cc1ccc(-c2ccc(-c3cccs3)s2)s1 | 5.70 |
| NCc1ccc(-c2ccc(-c3cccs3)s2)s1 | 5.15 |
| c1csc(-c2ccc(-c3cccs3)s2)c1 | 5.00 |
| O=Cc1ccc(-c2ccc(-c3cccs3)s2)s1 | 6.15 |
